These results are taken from patent publication US12528814B2, “Bifunctional degraders of interleukin-1 receptor-associated kinases and therapeutic use thereof” (NURIX THERAPEUTICS, INC., priority 2020, dated 2026).

Structures are written as SMILES. Read-outs that look alike come from different tables or passages of the source.

Assay [1] addresses T1, IRAK4 (Homo sapiens (Human), UniProt Q9NWZ3). Put plainly: IRAK4 Degradation HiBiT Assay. As to conditions: HiBiT-tagged Jurkat cells, 4 hrs; for Dmax: Jurkat; for DC50: read-out: Cellular IRAK4 HiBiT: DC50.
Target sequence in this assay (Q9NWZ3 whole entry): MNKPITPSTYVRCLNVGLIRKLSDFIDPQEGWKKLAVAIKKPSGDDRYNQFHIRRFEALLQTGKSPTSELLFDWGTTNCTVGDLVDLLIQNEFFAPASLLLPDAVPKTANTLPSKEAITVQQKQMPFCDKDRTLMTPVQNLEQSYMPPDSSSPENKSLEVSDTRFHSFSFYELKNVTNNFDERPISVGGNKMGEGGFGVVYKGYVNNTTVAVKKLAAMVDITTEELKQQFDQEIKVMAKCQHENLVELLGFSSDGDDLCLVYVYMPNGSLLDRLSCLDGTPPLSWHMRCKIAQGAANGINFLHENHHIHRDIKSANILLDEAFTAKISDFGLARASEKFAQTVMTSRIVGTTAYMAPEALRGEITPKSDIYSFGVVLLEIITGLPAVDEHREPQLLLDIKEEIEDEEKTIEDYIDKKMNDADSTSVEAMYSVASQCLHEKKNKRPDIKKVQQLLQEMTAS
The target in assay [2] is T1, IRAK4. Put plainly: IRAK4 Biochemical HTRF Kinase Assay. As to conditions: read-out: IRAK4 HTRF biochemical: IC50. A digest of the protocol:
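IC50 values derive from non-linear regression of sixteen concentrations in duplicate. Kinase reaction ran 90 min at ambient temperature after adding 5 μM STK-S1 substrate, 10 mM ATP and 10 mM MgCl2 (reaction-solution levels, pre-dilution to 10 μl); phospho-peptide detected by HTRF after 60 min.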
Target sequence in this assay (Q9NWZ3 whole entry, species assumed): as the sequence (Q9NWZ3 whole entry) above

The mark [3] stands for this setting: read-out: Cellular IRAK4 HiBiT: Dmax, Table 4.
[4] abbreviates: read-out: Cellular IRAK4 HiBiT: Dmax, Table 5, multiple runs.

As to `CN[C@@H](C)C(=O)N[C@H](C(=O)N1CCC[C@H]1c1nc(C(=O)c2cccc(OCCOCCC(=O)N3CCN(c4nnc(-c5cnc(-c6ccc7cc(C#N)cnn67)cc5NC(C)C)s4)CC3)c2)cs1)C1CCCCC1` [Example 50, (S)—N—((S)-2-((S)-2-(4-(3-(2-(3-(4-(5-(6-(3-cyanopyrrolo[1,2-b]pyridazin-7-yl)-4-(isopropylamino)pyridin-3-yl)-1,3,4-thiadiazol-2-yl)piperazin-1-yl)-3-oxopropoxy)ethoxy)benzoyl)thiazol-2-yl)pyrrolidin-1-yl)-1-cyclohexyl-2-oxoethyl)-2-(methylamino)propanamide], the Dmax at IRAK4 [1] (setting [3]) and at IRAK4 [1] (setting [4]) was 67% throughout. Besides, the DC50 on IRAK4 [1] (Table 4) came out at 197 nM; at IRAK4 [1] (Table 5, multiple runs), 197 nM. The IC50 on IRAK4 [2] (Table 4) came out at 3.1 nM; at IRAK4 [2] (Table 5, multiple runs) it was 3.2 nM.

Turning to `CN[C@@H](C)C(=O)N[C@H](C(=O)N1C[C@@H](NC(=O)CCCCC(=O)N2CCN(c3nnc(-c4cnc(-c5ccc6cc(C#N)cnn56)cc4NC(C)C)s3)CC2)C[C@H]1C(=O)N[C@@H]1CCCc2ccccc21)C1CCCCC1` [Example 51, (2S,4S)-4-(6-(4-(5-(6-(3-cyanopyrrolo[1,2-b]pyridazin-7-yl)-4-(isopropylamino)pyridin-3-yl)-1,3,4-thiadiazol-2-yl)piperazin-1-yl)-6-oxohexanamido)-1-((S)-2-cyclohexyl-2-((S)-2-(methylamino)propanamido)acetyl)-N—((R)-1,2,3,4-tetrahydronaphthalen-1-yl)pyrrolidine-2-carboxamide], the Dmax amounted to 48% at IRAK4 [1] (setting [3]) and 47% at IRAK4 [1] (setting [4]). The DC50 came out at 638 nM at IRAK4 [1] (Table 4) and 502 nM on IRAK4 [1] (Table 5, multiple runs). Further, the IC50 worked out at 2 nM on IRAK4 [2] (Table 4) and 2 nM at IRAK4 [2] (Table 5, multiple runs).

As to `CN[C@@H](C)C(=O)N[C@H](C(=O)N1C[C@@H](NC(=O)CCCCCCC(=O)N2CCN(c3nnc(-c4cnc(-c5ccc6cc(C#N)cnn56)cc4NC(C)C)s3)CC2)C[C@H]1C(=O)N[C@@H]1CCCc2ccccc21)C1CCCCC1` [Example 52, (2S,4S)-4-(8-(4-(5-(6-(3-cyanopyrrolo[1,2-b]pyridazin-7-yl)-4-(isopropylamino)pyridin-3-yl)-1,3,4-thiadiazol-2-yl)piperazin-1-yl)-8-oxooctanamido)-1-((S)-2-cyclohexyl-2-((S)-2-(methylamino)propanamido)acetyl)-N—((R)-1,2,3,4-tetrahydronaphthalen-1-yl)pyrrolidine-2-carboxamide], the Dmax at IRAK4 [1] (setting [3]) and on IRAK4 [1] (setting [4]) was 70% throughout. Also, the half-maximal degradation concentration (DC50) at IRAK4 [1] (Table 4) is 422 nM; on IRAK4 [1] (Table 5, multiple runs), 422 nM. Also, the half-maximal inhibitory concentration (IC50) at IRAK4 [2] (Table 4) amounted to 1.9 nM; at IRAK4 [2] (Table 5, multiple runs), 1.9 nM.

With `CN[C@@H](C)C(=O)N[C@H](C(=O)N1C[C@@H](NC(=O)CCCCCCCCCCC(=O)N2CCN(c3nnc(-c4cnc(-c5ccc6cc(C#N)cnn56)cc4NC(C)C)s3)CC2)C[C@H]1C(=O)N[C@@H]1CCCc2ccccc21)C1CCCCC1` [Example 53, (2S,4S)-4-(12-(4-(5-(6-(3-cyanopyrrolo[1,2-b]pyridazin-7-yl)-4-(isopropylamino)pyridin-3-yl)-1,3,4-thiadiazol-2-yl)piperazin-1-yl)-12-oxododecanamido)-1-((S)-2-cyclohexyl-2-((S)-2-(methylamino)propanamido)acetyl)-N—((R)-1,2,3,4-tetrahydronaphthalen-1-yl)pyrrolidine-2-carboxamide], the Dmax at IRAK4 [1] (setting [3]) was determined as 48%; at IRAK4 [1] (setting [4]) it was 82%. Further, the DC50 on IRAK4 [1] (Table 4) came to 993 nM; at IRAK4 [1] (Table 5, multiple runs) it was 8750 nM. Besides, the IC50 on IRAK4 [2] (Table 4) was found to be 5.8 nM; on IRAK4 [2] (Table 5, multiple runs), 5.8 nM.
